According to paper PMC7587356, “High-Throughput Screening for Inhibitors of the SARS-CoV-2 Protease Using a FRET-Biosensor” (Molecules, 2020):
Structures can show the parent of a compound that is named as a salt. Where two headings read alike, the source gives them in different places.

Target: SARS-CoV-2 3CLpro (Severe acute respiratory syndrome coronavirus 2, UniProt P0DTD1)
Assay: biochemical
Format: biochemical
Parameters: Replicate_1 / Replicate_2 / mean / mean (LOPAC_screen_w_protease): unit not given here
Details: for inhibition at 5 µM: 4 h; for mean (LOPAC screen with protease) / Replicate_1 (LOPAC screen with protease) / Replicate_2 (LOPAC screen with protease): primary screen at 5 µM
[1] = sheet LOPAC_screen_w_protease, primary screen with protease, 5 µM, mean of two replicates, read-out: mean
[2] = sheet LOPAC_screen_w_protease, primary screen with protease, 5 µM, replicate 1, read-out: Replicate_1
[3] = sheet LOPAC_screen_w_protease, primary screen with protease, 5 µM, replicate 2, read-out: Replicate_2
[4] = LOPAC1280 primary screen with protease, 5 µM compound, replicate 1, read-out: Replicate_1 (LOPAC_screen_w_protease)
[5] = LOPAC1280 primary screen with protease, 5 µM compound, replicate 2, read-out: Replicate_2 (LOPAC_screen_w_protease)
[6] = LOPAC1280 primary screen with protease, 5 µM compound, mean of two replicates
[7] = sheet LOPAC_screen_w_protease, primary screen with protease, mean of two replicates, read-out: mean
[8] = sheet LOPAC_screen_w_protease, primary screen with protease, replicate 1, read-out: Replicate_1
[9] = sheet LOPAC_screen_w_protease, primary screen with protease, replicate 2, read-out: Replicate_2
[10] = sheet LOPAC_screen_w_protease, LOPAC1280 primary screen with protease, 5 µM compound, mean of the two replicates, read-out: mean
[11] = sheet LOPAC_screen_w_protease, LOPAC1280 primary screen with protease, 5 µM compound, replicate 1, read-out: Replicate_1
[12] = sheet LOPAC_screen_w_protease, LOPAC1280 primary screen with protease, 5 µM compound, replicate 2, read-out: Replicate_2
[13] = sheet LOPAC_screen_w_protease, primary screen of LOPAC1280 at 5 µM with protease, mean of the two replicates, read-out: mean
[14] = sheet LOPAC_screen_w_protease, primary screen of LOPAC1280 at 5 µM with protease, replicate 1, read-out: Replicate_1
[15] = sheet LOPAC_screen_w_protease, primary screen of LOPAC1280 at 5 µM with protease, replicate 2, read-out: Replicate_2
[16] = read-out: Replicate_1 (LOPAC_screen_w_protease)
[17] = read-out: Replicate_2 (LOPAC_screen_w_protease)
[18] = sheet LOPAC_screen_w_protease, LOPAC1280 at 5 µM, mean of two replicates
[19] = sheet LOPAC_screen_w_protease, LOPAC1280 at 5 µM, replicate 1
[20] = sheet LOPAC_screen_w_protease, LOPAC1280 at 5 µM, replicate 2
[21] = sheet LOPAC_screen_w_protease, LOPAC1280 primary screen with protease, 5 µM compound, mean of the two replicates
[22] = sheet LOPAC_screen_w_protease, LOPAC1280 primary screen with protease, 5 µM compound, replicate 1
[23] = sheet LOPAC_screen_w_protease, LOPAC1280 primary screen with protease, 5 µM compound, replicate 2
[24] = sheet LOPAC_screen_w_protease, LOPAC1280 primary screen at 5 µM, with protease, mean of the two replicates
[25] = sheet LOPAC_screen_w_protease, LOPAC1280 primary screen at 5 µM, with protease, replicate 1
[26] = sheet LOPAC_screen_w_protease, LOPAC1280 primary screen at 5 µM, with protease, replicate 2
[27] = sheet LOPAC_screen_w_protease, mean of two replicates
[28] = sheet LOPAC_screen_w_protease, replicate 1
[29] = sheet LOPAC_screen_w_protease, replicate 2

## CCCNC(C)C(=O)Nc1ccccc1C (stereo not shown) [Prilocaine hydrochloride]
[1]
  inhibition at 5 µM: 0.116%
[2]
  inhibition at 5 µM: 0.518%
[3]
  inhibition at 5 µM: -0.285%

## CCN(CC)CCOC(=O)c1ccc(N)cc1 [Procaine hydrochloride]
[4]
  inhibition at 5 µM: 1.06%
[5]
  inhibition at 5 µM: 1.81%
[6]
  mean (LOPAC_screen_w_protease): 1.433

## CN1CCN(CCCN2c3ccccc3Sc3ccc(Cl)cc32)CC1 [Prochlorperazine dimaleate]
[7]
  inhibition at 5 µM: 2.43%
[8]
  inhibition at 5 µM: 4.42%
[9]
  inhibition at 5 µM: 0.439%

## CC(=O)[C@H]1CC[C@H]2[C@@H]3CCC4=CC(=O)CC[C@]4(C)[C@H]3CC[C@]12C [Progesterone]
[10]
  inhibition at 5 µM: 5.55%
[11]
  inhibition at 5 µM: 3.58%
[12]
  inhibition at 5 µM: 7.53%

## CCCN(CCC)C(=O)C(CCC(=O)O)NC(=O)c1ccccc1 (stereo not shown) [Proglumide]
[10]
  inhibition at 5 µM: 4.27%
[11]
  inhibition at 5 µM: 4.11%
[12]
  inhibition at 5 µM: 4.43%

## CN(C)CCCN1c2ccccc2Sc2ccccc21 [Promazine hydrochloride]
[1]
  inhibition at 5 µM: -0.303%
[2]
  inhibition at 5 µM: -0.0432%
[3]
  inhibition at 5 µM: -0.563%

## CC(CN1c2ccccc2Sc2ccccc21)N(C)C (stereo not shown) [Promethazine hydrochloride]
[13]
  inhibition at 5 µM: 3.55%
[14]
  inhibition at 5 µM: 1.74%
[15]
  inhibition at 5 µM: 5.35%

## CCCNCC(O)COc1ccccc1C(=O)CCc1ccccc1 (stereo not shown) [Propafenone hydrochloride]
[13]
  inhibition at 5 µM: 3.27%
[14]
  inhibition at 5 µM: 3.05%
[15]
  inhibition at 5 µM: 3.48%

## CC(C)[N+](C)(CCOC(=O)C1c2ccccc2Oc2ccccc21)C(C)C [Propantheline bromide]
[1]
  inhibition at 5 µM: 0.204%
[2]
  inhibition at 5 µM: 0.838%
[3]
  inhibition at 5 µM: -0.43%

## CCCn1cnc2c1c(=O)n(CCCCC(C)=O)c(=O)n2C [Propentofylline]
Sheet LOPAC_screen_w_protease, LOPAC1280 at 5 µM, mean of two replicates, read-out: mean
  inhibition at 5 µM: 1.26%
Sheet LOPAC_screen_w_protease, LOPAC1280 at 5 µM, replicate 1, read-out: Replicate_1
  inhibition at 5 µM: 2.2%
Sheet LOPAC_screen_w_protease, LOPAC1280 at 5 µM, replicate 2, read-out: Replicate_2
  inhibition at 5 µM: 0.327%

## CCC(=O)c1ccc2c(c1)N(CCCN(C)C)c1ccccc1S2 [Propionylpromazine hydrochloride]
[4]
  inhibition at 5 µM: 2.15%
[5]
  inhibition at 5 µM: 0.621%
[6]
  mean (LOPAC_screen_w_protease): 1.386

## C=CC1=C(C)c2cc3[nH]c(cc4nc(cc5[nH]c(cc1n2)c(C)c5CCC(=O)O)C(CCC(=O)O)=C4C)c(C)c3C=C [Protoporphyrin IX disodium]
read-out: Replicate_1
  inhibition at 5 µM: 2.66%
read-out: Replicate_2
  inhibition at 5 µM: 2.42%
read-out: mean
  inhibition at 5 µM: 2.54%

## CNCCCC1c2ccccc2C=Cc2ccccc21 [Protriptyline hydrochloride]
read-out: Replicate_1
  inhibition at 5 µM: 1.19%
read-out: Replicate_2
  inhibition at 5 µM: -0.325%
read-out: mean
  inhibition at 5 µM: 0.431%

## CC(C)[C@H](CO)Nc1nc(Nc2cccc(Cl)c2)c2ncn(C(C)C)c2n1 [Purvalanol A]
[7]
  inhibition at 5 µM: 2.33%
[8]
  inhibition at 5 µM: 2.6%
[9]
  inhibition at 5 µM: 2.06%

## NCCCCN [Putrescine dihydrochloride]
  mean (LOPAC_screen_w_protease): 2.055
[16]
  inhibition at 5 µM: 4.37%
[17]
  inhibition at 5 µM: -0.258%

## NC(=O)c1cnccn1 [Pyrazinecarboxamide]
[18]
  mean: 0.9233
[19]
  Replicate_1: 1.572
[20]
  Replicate_2: 0.2741

## CN(C)C(=O)Oc1ccc[n+](C)c1 [Pyridostigmine bromide]
[1]
  inhibition at 5 µM: 0.333%
[2]
  inhibition at 5 µM: 1.4%
[3]
  inhibition at 5 µM: -0.737%

## COc1ccc(CN(CCN(C)C)c2ccccn2)cc1 [Pyrilamine maleate]
[7]
  inhibition at 5 µM: 2.44%
[8]
  inhibition at 5 µM: 1.24%
[9]
  inhibition at 5 µM: 3.63%

## C[C@@H]1C(=O)NC2=Nc3cccc(Cl)c3CN21 [Quazinone]
[10]
  inhibition at 5 µM: 4.1%
[11]
  inhibition at 5 µM: 4.2%
[12]
  inhibition at 5 µM: 4%

## O=c1c(O)c(-c2ccc(O)c(O)c2)oc2cc(O)cc(O)c12 [Quercetin dihydrate]
[16]
  inhibition at 5 µM: 2.76%
[17]
  inhibition at 5 µM: 1.18%

## CCCN1CCC[C@@H]2Cc3nc(N)ncc3C[C@H]21.Cl.Cl [Quinelorane dihydrochloride]
[21]
  mean: 6.182
[22]
  Replicate_1: 6.527
[23]
  Replicate_2: 5.838

## O=C(O)c1cccnc1C(=O)O [Quinolinic acid]
Sheet LOPAC_screen_w_protease, LOPAC1280 primary screen at 5 µM, with protease, mean of the two replicates, read-out: mean
  inhibition at 5 µM: 0.58%
Sheet LOPAC_screen_w_protease, LOPAC1280 primary screen at 5 µM, with protease, replicate 1, read-out: Replicate_1
  inhibition at 5 µM: -0.228%
Sheet LOPAC_screen_w_protease, LOPAC1280 primary screen at 5 µM, with protease, replicate 2, read-out: Replicate_2
  inhibition at 5 µM: 1.39%

## O=C(O)/C=C\C(=O)O.O=C(O)/C=C\C(=O)O.c1ccc2nc(N3CCNCC3)ccc2c1 [Quipazine dimaleate]
[24]
  mean: 0.5004
[25]
  Replicate_1: 0.6596
[26]
  Replicate_2: 0.3411

## O=C(O)/C=C\C(=O)O.O=[N+]([O-])c1ccc2nc(N3CCNCC3)ccc2c1 [Quipazine, 6-nitro-, maleate]
[24]
  mean: 0.7082
[25]
  Replicate_1: 1.452
[26]
  Replicate_2: -0.03606

## CN1CCN(c2ccc3ccccc3n2)CC1.O=C(O)/C=C\C(=O)O.O=C(O)/C=C\C(=O)O [Quipazine, N-methyl-, dimaleate]
[24]
  mean: 0.6078
[25]
  Replicate_1: 1.027
[26]
  Replicate_2: 0.1891

## CCCN1CCC[C@H](c2cccc(O)c2)C1.Cl [R(+)-3PPP hydrochloride]
[18]
  mean: 0.9121
[19]
  Replicate_1: 1.657
[20]
  Replicate_2: 0.167

## Br.C=CCN1CCc2c(cc(O)c(O)c2Br)[C@@H](c2ccccc2)C1 [R(+)-6-Bromo-APB hydrobromide]
[27]
  mean (LOPAC screen with protease): 28.8024
[28]
  Replicate_1 (LOPAC screen with protease): 26.2193
[29]
  Replicate_2 (LOPAC screen with protease): 31.3855

## C[C@@]1(C2CCCC2)Cc2cc(OCC(=O)O)c(Cl)c(Cl)c2C1=O [R(+)-IAA-94]
Sheet LOPAC_screen_w_protease, primary screen with protease, compound at 5 µM, mean of two replicates
  mean: 3.0784
Sheet LOPAC_screen_w_protease, primary screen with protease, compound at 5 µM, replicate 2
  Replicate_2: 3.637

## CN1CCc2cc(Cl)c(O)cc2[C@@H](c2ccccc2)C1.Cl [R(+)-SCH-23390 hydrochloride]
Sheet LOPAC_screen_w_protease, primary screen of LOPAC1280 at 5 µM with protease, mean of the two replicates
  mean: 3.494
Sheet LOPAC_screen_w_protease, primary screen of LOPAC1280 at 5 µM with protease, replicate 1
  Replicate_1: 4.714
Sheet LOPAC_screen_w_protease, primary screen of LOPAC1280 at 5 µM with protease, replicate 2
  Replicate_2: 2.274

## CCN(CC)C(=O)N[C@H]1C[C@@H]2c3cccc4[nH]cc(c34)C[C@H]2N(C)C1 [R(+)-Terguride]
[24]
  mean: 0.4418
[25]
  Replicate_1: 0.9662
[26]
  Replicate_2: -0.08256

## CCCN(CCC)[C@@H]1CCc2c(F)ccc(O)c2C1.Cl [R(+)-UH-301 hydrochloride]
[6]
  mean (LOPAC_screen_w_protease): 1.335
LOPAC1280 primary screen with protease, 5 µM compound, replicate 1
  Replicate_1 (LOPAC_screen_w_protease): 1.567
LOPAC1280 primary screen with protease, 5 µM compound, replicate 2
  Replicate_2 (LOPAC_screen_w_protease): 1.103

## COc1ccc2c(c1O)-c1cccc3c1[C@@H](C2)N(C)CC3.Cl [R(-)-Apocodeine hydrochloride]
[21]
  mean: 6.058
[22]
  Replicate_1: 6.597
[23]
  Replicate_2: 5.52

## COc1ccc(CCNC[C@H](O)c2ccc(O)cc2)cc1OC [R(-)-Denopamine]
Sheet LOPAC_screen_w_protease, primary screen with protease, 5 µM, mean of two replicates
  mean: -0.5647
Sheet LOPAC_screen_w_protease, primary screen with protease, 5 µM, replicate 1
  Replicate_1: -0.1092
Sheet LOPAC_screen_w_protease, primary screen with protease, 5 µM, replicate 2
  Replicate_2: -1.02

## Cc1cccc(C)c1OCC(N)C(C)C.I (stereo not drawn) [R(-)-Me5]
[27]
  mean (LOPAC screen with protease): 9.695
[28]
  Replicate_1 (LOPAC screen with protease): 9.8488
[29]
  Replicate_2 (LOPAC screen with protease): 9.541

## C[C@H](Cc1ccccc1)Nc1ncnc2c1ncn2[C@@H]1O[C@H](CO)[C@@H](O)[C@H]1O [R(-)-N6-(2-Phenylisopropyl)adenosine]
[24]
  mean: 0.4967
[25]
  Replicate_1: 2.165
[26]
  Replicate_2: -1.171
